Assay [1] addresses full-length MALT1 protein (Strep-MALT1(1-824)-His) (Homo sapiens (Human), UniProt Q9UDY8). Nature of the assay: MALT1 Biochemical Protease Assay (Ac-LRSR-AMC substrate). As to conditions: 10 nM FL MALT1, 200 μM Ac-LRSR-AMC, 4 h at RT; read-out: MALT1_Biochemical activity (Ac-LRSR-amc) IC50. A digest of the protocol:
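Fluorescence from AMC release off the quenched LRSR substrate was read after a 4 h reaction at RT. Values were normalised to no-enzyme and uninhibited controls and fitted for IC50 and Hill coefficient.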

In assay [2] the test system is IL6 secretion by TMD8 ABC-DLBCL cells. Nature of the assay: Human IL6 Mesoscale assay (TMD-8). It counts as cell-based. The settings on record: Homo sapiens, TMD8; TMD-8 cells, 24 h. A digest of the protocol: (§1)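 TMD8 or OCI-LY3 cells (100,000/well) were exposed to compounds in 9 twofold dilutions from 15 μM to 58.6 nM (0.3% DMSO) for 24 h at 37 °C. Supernatant IL6 and IL10 were quantified by MSD electrochemiluminescence immunoassay. DMSO defined maximum signal and BTK inhibitor RN486 (30 nM–131 pM) defined maximum inhibition.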

Assay [3] concerns IL10 secretion by OCI-LY3 ABC-DLBCL cells. Nature of the assay: Human IL10 Mesoscale assay (OCI-LY3). In kind it is cell-based. As to conditions: 24 h. A digest of the protocol:
as §1

For assay [4], the system named is IL10 secretion by TMD8 ABC-DLBCL cells. Nature of the assay: Human IL10 Mesoscale assay (TMD-8). In kind it is cell-based. The settings on record: Homo sapiens, TMD8; TMD-8 cells, 24 h. In a few lines: as §1
The test system of assay [5] is IL6 secretion by OCI-LY3 ABC-DLBCL cells. In words: Human IL6 Mesoscale assay (OCI-LY3). As to conditions: 24 h. It counts as cell-based. In a few lines:
as §1

Sequence of full-length MALT1 protein (Strep-MALT1(1-824)-His) (Q9UDY8 whole entry): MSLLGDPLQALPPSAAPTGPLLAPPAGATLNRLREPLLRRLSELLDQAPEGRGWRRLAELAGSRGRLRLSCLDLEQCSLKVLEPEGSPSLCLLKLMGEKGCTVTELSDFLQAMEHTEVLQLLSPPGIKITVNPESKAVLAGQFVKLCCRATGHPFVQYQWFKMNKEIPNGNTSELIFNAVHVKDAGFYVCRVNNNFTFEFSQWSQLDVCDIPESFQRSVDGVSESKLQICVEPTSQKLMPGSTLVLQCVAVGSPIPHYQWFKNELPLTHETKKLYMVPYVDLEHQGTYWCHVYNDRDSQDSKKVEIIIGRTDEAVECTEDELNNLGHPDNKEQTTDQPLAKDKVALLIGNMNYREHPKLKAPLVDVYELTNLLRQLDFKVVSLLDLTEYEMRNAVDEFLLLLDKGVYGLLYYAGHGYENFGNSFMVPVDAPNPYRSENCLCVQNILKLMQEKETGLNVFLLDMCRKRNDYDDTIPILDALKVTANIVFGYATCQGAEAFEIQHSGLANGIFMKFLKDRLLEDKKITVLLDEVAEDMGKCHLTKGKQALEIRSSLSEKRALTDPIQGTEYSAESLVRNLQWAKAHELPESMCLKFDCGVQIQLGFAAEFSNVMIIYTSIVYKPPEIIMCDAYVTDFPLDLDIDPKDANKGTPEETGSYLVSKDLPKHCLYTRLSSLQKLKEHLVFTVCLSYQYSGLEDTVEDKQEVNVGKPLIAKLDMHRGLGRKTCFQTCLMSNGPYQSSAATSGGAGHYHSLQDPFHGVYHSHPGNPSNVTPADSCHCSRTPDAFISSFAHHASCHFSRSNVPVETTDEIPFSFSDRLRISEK

`C[C@@H](O)c1nccc2c(-n3ncc(C(=O)Nc4cnc(-n5nccn5)c(Cl)c4)c3C(F)(F)F)cccc12` (single isomer, unassigned) [Cpd 444, (*R)—N-(5-chloro-6-(2H-1,2,3-triazol-2-yl)pyridin-3-yl)-1-(1-(1-hydroxyethyl)isoquinolin-5-yl)-5-(trifluoromethyl)-1H-pyrazole-4-carboxamide]: the 50% inhibitory concentration (IC50) came out at 58 nM in assay [1]; 107 nM in assay [2]; 27 nM in assay [3] (Homo sapiens); 63 nM in assay [4]; 39 nM in assay [5] (Homo sapiens).

Regarding `N#Cc1cc(NC(=O)c2cnn(-c3cnc4ccccn34)c2C(F)(F)F)cnc1-n1nccn1` [Cpd 189, N-(5-cyano-6-(2H-1,2,3-triazol-2-yl)pyridin-3-yl)-1-(imidazo[1,2-a]pyridin-3-yl)-5-(trifluoromethyl)-1H-pyrazole-4-carboxamide], the IC50 in assay [1] is 78 nM; in assay [2], 107 nM; in assay [3] (Homo sapiens), 27 nM; in assay [4], 63 nM; in assay [5] (Homo sapiens), 39 nM.

On to `Cc1nc(-n2nccn2)c(Cl)cc1NC(=O)c1cnn(-c2cccc3nccn23)c1C(F)(F)F` [Cpd 194, N-(5-chloro-2-methyl-6-(2H-1,2,3-triazol-2-yl)pyridin-3-yl)-1-(imidazo[1,2-a]pyridin-5-yl)-5-(trifluoromethyl)-1H-pyrazole-4-carboxamide], for which the IC50 in assay [1] turned out to be 76 nM; in assay [2], 78 nM; in assay [3] (Homo sapiens), 68 nM; in assay [4], 98 nM; in assay [5] (Homo sapiens), 100 nM.

Consider `N#Cc1cc(NC(=O)c2cnn(-c3cncc4ccccc34)c2C(F)(F)F)cnc1C(=O)NCCCCN` [Cpd 236, N-(4-aminobutyl)-3-cyano-5-(1-(isoquinolin-4-yl)-5-(trifluoromethyl)-1H-pyrazole-4-carboxamido)picolinamide], for which the concentration for half-maximal inhibition (IC50) came out at 724 nM in assay [1]; 1380 nM in assay [2]; 309 nM in assay [3] (Homo sapiens); 427 nM in assay [4]; 380 nM in assay [5] (Homo sapiens).

For `Cc1cc(NC(=O)c2cnn(-c3cccc4ncccc34)c2C(F)(F)F)ccc1-n1cc(CN)cn1` [Cpd 238, N-(4-(4-(aminomethyl)-1H-pyrazol-1-yl)-3-methylphenyl)-1-(quinolin-5-yl)-5-(trifluoromethyl)-1H-pyrazole-4-carboxamide], the IC50 amounted to 676 nM in assay [1]; 32 nM in assay [2]; 35 nM in assay [3] (Homo sapiens); 50 nM in assay [4]; 44 nM in assay [5] (Homo sapiens).

As to `Cn1ncc2c(-n3ncc(C(=O)Nc4cnc(-n5nccn5)c(C#N)c4)c3C(F)(F)F)ccnc21` [Cpd 241, N-(5-cyano-6-(2H-1,2,3-triazol-2-yl)pyridin-3-yl)-1-(1-methyl-1H-pyrazolo[3,4-b]pyridin-4-yl)-5-(trifluoromethyl)-1H-pyrazole-4-carboxamide], the half-maximal inhibitory concentration (IC50) is 562 nM in assay [1]; 49 nM in assay [2]; 37 nM in assay [3] (Homo sapiens); 69 nM in assay [4]; 51 nM in assay [5] (Homo sapiens).

For `COc1nccc2c(-n3ncc(C(=O)Nc4cnc(-n5nccn5)c(Cl)c4)c3C(F)(F)F)cccc12` [Cpd 243, N-(5-chloro-6-(2H-1,2,3-triazol-2-yl)pyridin-3-yl)-1-(1-methoxyisoquinolin-5-yl)-5-(trifluoromethyl)-1H-pyrazole-4-carboxamide], the IC50 in assay [1] was 417 nM; in assay [2] it was 363 nM; in assay [3] (Homo sapiens), 129 nM; in assay [4], 339 nM; in assay [5] (Homo sapiens), 120 nM.

`NC(=O)c1cnn(-c2ccc(NC(=O)c3cnn(-c4cccc5ncccc45)c3C(F)(F)F)cc2Cl)n1` [Cpd 244, 2-(2-chloro-4-(1-(quinolin-5-yl)-5-(trifluoromethyl)-1H-pyrazole-4-carboxamido)phenyl)-2H-1,2,3-triazole-4-carboxamide]: the IC50 in assay [1] came to 398 nM; in assay [2], 741 nM; in assay [3] (Homo sapiens) it was 155 nM; in assay [4], 245 nM; in assay [5] (Homo sapiens), 174 nM.

Regarding `Cn1ncc2cccc(-n3ncc(C(=O)Nc4cnc(-n5nccn5)c(C#N)c4)c3C(F)(F)F)c21` [Cpd 260, N-(5-cyano-6-(2H-1,2,3-triazol-2-yl)pyridin-3-yl)-1-(1-methyl-1H-indazol-7-yl)-5-(trifluoromethyl)-1H-pyrazole-4-carboxamide], the half-maximal inhibitory concentration (IC50) in assay [1] is 204 nM; in assay [2], over 3020 nM; in assay [3] (Homo sapiens), over 3020 nM; in assay [4], over 3020 nM; in assay [5] (Homo sapiens), over 3020 nM.

Take `Cn1ccc(-c2ncc(NC(=O)c3cnn(-c4ccc(F)c5ncccc45)c3C(F)(F)F)cc2C#N)n1` [Cpd 268, N-(5-cyano-6-(1-methyl-1H-pyrazol-3-yl)pyridin-3-yl)-1-(8-fluoroquinolin-5-yl)-5-(trifluoromethyl)-1H-pyrazole-4-carboxamide]: the 50% inhibitory concentration (IC50) was found to be 155 nM in assay [1]; 158 nM in assay [2]; 63 nM in assay [3] (Homo sapiens); 229 nM in assay [4]; 95 nM in assay [5] (Homo sapiens).

Consider `Cn1cc(-n2ncc(C(=O)Nc3cnc(-n4nccn4)c(Cl)c3)c2C(F)(F)F)c2ccccc2c1=O` [Cpd 423, N-(5-chloro-6-(2H-1,2,3-triazol-2-yl)pyridin-3-yl)-1-(2-methyl-1-oxo-1,2-dihydroisoquinolin-4-yl)-5-(trifluoromethyl)-1H-pyrazole-4-carboxamide], for which the IC50 worked out at 54 nM in assay [1], 44 nM in assay [3] (Homo sapiens) and 123 nM in assay [5] (Homo sapiens).

In the case of `O=C(Nc1cnc(-n2nccn2)c(Cl)c1)c1cnn(-c2cnc(Cl)c3sccc23)c1C(F)(F)F` [Cpd 424, N-(5-chloro-6-(2H-1,2,3-triazol-2-yl)pyridin-3-yl)-1-(7-chlorothieno[2,3-c]pyridin-4-yl)-5-(trifluoromethyl)-1H-pyrazole-4-carboxamide], the IC50 in assay [1] was 72 nM; in assay [3] (Homo sapiens), 182 nM; in assay [5] (Homo sapiens), 166 nM.

For `O=C(Nc1cnc(-n2nccn2)c(Cl)c1)c1cnn(-c2cnc(N3CC[C@@H](O)C3)c3ccccc23)c1C(F)(F)F` [Cpd 427, (R)—N-(5-chloro-6-(2H-1,2,3-triazol-2-yl)pyridin-3-yl)-1-(1-(3-hydroxypyrrolidin-1-yl)isoquinolin-4-yl)-5-(trifluoromethyl)-1H-pyrazole-4-carboxamide], the IC50 worked out at 9 nM in assay [1], 158 nM in assay [3] (Homo sapiens) and 204 nM in assay [5] (Homo sapiens).

In the case of `CSc1ncc(-n2ncc(C(=O)Nc3cnc(-n4nccn4)c(Cl)c3)c2C(F)(F)F)c2ccccc12` [Cpd 429, N-(5-chloro-6-(2H-1,2,3-triazol-2-yl)pyridin-3-yl)-1-(1-(methylthio)isoquinolin-4-yl)-5-(trifluoromethyl)-1H-pyrazole-4-carboxamide], the values for the IC50 in assay [1], in assay [3] (Homo sapiens) and in assay [5] (Homo sapiens) were 30 nM, 112 nM and 251 nM, respectively.

Take `O=C(Nc1cnc(-n2nccn2)c(Cl)c1)c1cnn(-c2cnc(N3CC[C@H](O)C3)c3sccc23)c1C(F)(F)F` [Cpd 431, (S)—N-(5-chloro-6-(2H-1,2,3-triazol-2-yl)pyridin-3-yl)-1-(7-(3-hydroxypyrrolidin-1-yl)thieno[2,3-c]pyridin-4-yl)-5-(trifluoromethyl)-1H-pyrazole-4-carboxamide]: the values for the IC50 in assay [1], in assay [3] (Homo sapiens) and in assay [5] (Homo sapiens) were 17 nM, 95 nM and 117 nM, respectively.

In the case of `Cc1nc(-n2nccn2)c(Cl)cc1NC(=O)c1cnn(-c2cnc(N3CC(O)C3)c3sccc23)c1C(F)(F)F` [Cpd 433, N-(5-chloro-2-methyl-6-(2H-1,2,3-triazol-2-yl)pyridin-3-yl)-1-(7-(3-hydroxyazetidin-1-yl)thieno[2,3-c]pyridin-4-yl)-5-(trifluoromethyl)-1H-pyrazole-4-carboxamide], the results for the IC50 in assay [1], in assay [3] (Homo sapiens) and in assay [5] (Homo sapiens) were 170 nM, 427 nM and 589 nM, respectively.

As for `Cc1ncc(-n2ncc(C(=O)Nc3cnc(-n4nccn4)c(Cl)c3)c2C(F)(F)F)c2ccsc12` [Cpd 434, N-(5-chloro-6-(2H-1,2,3-triazol-2-yl)pyridin-3-yl)-1-(7-methylthieno[2,3-c]pyridin-4-yl)-5-(trifluoromethyl)-1H-pyrazole-4-carboxamide], the concentration for half-maximal inhibition (IC50) in assay [1] was determined as 214 nM; in assay [3] (Homo sapiens) it was 174 nM; in assay [5] (Homo sapiens) it was 288 nM.

Regarding `O=C(Nc1cnc(-n2nccn2)c(Cl)c1)c1cnn(-c2cnc(C3CC3)c3sccc23)c1C(F)(F)F` [Cpd 435, N-(5-chloro-6-(2H-1,2,3-triazol-2-yl)pyridin-3-yl)-1-(7-cyclopropylthieno[2,3-c]pyridin-4-yl)-5-(trifluoromethyl)-1H-pyrazole-4-carboxamide], the half-maximal inhibitory concentration (IC50) in assay [1] came to 170 nM; in assay [3] (Homo sapiens), 81 nM; in assay [5] (Homo sapiens), 79 nM.

Take “N-(5-cyano-6-(2H-1,2,3-triazol-2-yl)pyridin-3-yl)-1-(imidazo[1,2-a]pyrazin-5-yl)-3-(trifluoromethyl)-1H-pyrazole-4-carboxamide [Cpd 275]”: the half-maximal inhibitory concentration (IC50) in assay [1] is 138 nM; in assay [3], 234 nM; in assay [5], 240 nM.

A word on the IC50: it is the concentration at which inhibition is half-maximal.

These data come from patent US10954214B2 (Janssen Pharmaceutica NV, priority 2016, dated 2021).
